These results are taken from patent US8865747B2, “Pioglitazone for use in the treatment of adrenoleukodystrophy” (Fundació Institut D'Investigació Biomèdica de Bellvitge …, priority 2012, dated 2014).

“Also recorded” adds a separate entry of the source.

Data set [1] concerns Abcd1-null mice. The data set can be described thus: Western blot of mitochondrial and antioxidant proteins in spinal cord. It is filed as in vivo, mouse. The conditions noted are these: Abcd1− mice fed 2 months with pioglitazone. From the text: The following antibodies were used for Western Blots: anti-mouse NADH-ubiquinol oxidoreductase (NDUFB8: complex I): dilution 1/2000 (Molecular Probes); anti-mouse anti-Porin 31HL (VDAC or Voltage Dependant Anion Channel): dilution 1/1000 (Calbiochem); anti-rabbit DNP: dilution 1/100 (Invitrogen); anti-mouse PGC-1a: dilution 1/1000 (ST1202, Calbiochem); anti-rabbit SIRT1 for mouse: dilution 1/500 (12193, Abcam); anti-rabbit SIRT1 for human: dilution 1/500 (32441, Abcam) and anti-mouse γ-tubulin: dilution 1/5000 (T6557, clone GTU-88, Sigma). Goat anti-rabbit IgG linked to horseradish peroxidase, dilution: 1/15000 (P0448, Dako, Glostrup, Denmark) and Goat anti-mouse IgG linked to horseradish peroxidase, dilution: 1/15000 (G21040, Invitrogen) have been used as secondary antibodies.
(§1) Pioglitazone (Actos®) was mixed into AIN-76A chow from Dyets (Bethlehem, Pa.) at 0.012% w/w, corresponding to a dose of 9 mg/kg/day per mice [Yan Q. et al., J. Neurosci. 2003, 23, 7504-7509]. […] .
Tissues were removed from euthanized mice and flash-frozen on liquid nitrogen. Frozen tissues were homogenized in RIPA buffer boiled for 5 min and centrifuged. We measured protein concentration of the supernatant with a BCA (bicinchoninic acid) Protein Assay Kit (Pierce). 10 to 100 μg were loaded onto each lane of 10% polyacrylamide gels for 60 min at […]. Resolved proteins were transferred to nitrocellulose. Proteins were detected with ECL western blotting analysis system (Amersham Biosciences).
Background: In western blotting, separated proteins are transferred to a membrane and probed.

For data set [2], the system named is SIRT1. The experiment in a line: SIRT1 immunoprecipitation and carbonyl (DNPH) measurement in spinal cord. It is filed as in vivo, mouse. The conditions noted are these: Abcd1− mice fed 2 months with pioglitazone, 12 months of age, FIG. 13. As to the method: as §1
Since the specific carbonylated SIRT1 antibody is not available, SIRT1 has been immunoprecipitated to measure carbonyl levels, as earlier described [Caito S. et al., Faseb J. 2010, 24, 3145-3159]. Protein (200 μg) extracted from whole spinal cord in a final volume of 400 μl RIPA buffer was incubated for 1 h with SIRT1 antibody [12193, (Abcam)] ((Abcam, 12193), dilution 1:80). Protein A sepharose (Amersham) was suspended in PBS for 1 h then blocked in BSA (1%) for 1 h. Protein A sepharose (50 μl ) was added to each sample and left overnight at 4° C. on a rotator. The samples are then centrifuged at 13,000 rpm at 4 ° C. for 5 min. […] Neural. 2011, 70, 84-92].

The test system of data set [3] is Abcd1-null mice. The experiment in a line: GC/MS measurement of oxidative lesion markers in spinal cord proteins. The class given is in vivo, mouse. The conditions noted are these: Abcd1− mice fed 2 months with pioglitazone, FIG. 15a. As to the method:
as §1

In data set [4] the test system is Abcd1−/Abcd2−/− (DKO) mice. The experiment in a line: Horizontal bar cross test. The following applies: after 2 months of treatment, FIG. 19.
Procedure: We set up a preclinical trial to assess the effect of pioglitazone on the progression of clinical signs using DKO null mice as the model Animals were randomly assigned to one of the following groups.
The bar cross test was carried out using a wooden bar of 100 cm in length and 2 cm in width (diameter). This bar is just wide enough for the mice to stand on with their hind feet hanging over the edge such that any slight lateral misstep will result in a slip. […] Bar cross test was performed basically as previously described [Lopez-Erauskin J. et al., Ann.
Mice were evaluated by the treadmill test and the bar-cross at the start and re-scored after 2 (i.e 15 months of age), and 4 months (i.e. 17 months of age) of the treatment.
Data set [5] deals with Abcd1-null mice. The experiment in a line: ATP levels, NAD-NADH determination and pyruvate kinase activity in spinal cord. The conditions noted are these: Abcd1− mice fed 2 months with pioglitazone, 12 months of age. It is filed as in vivo, mouse. How it is done:
as §1
To determine ATP levels, mice were sacrificed by cervical dislocation and spinal cords immediately frozen in liquid nitrogen and stored at −80° C. ATP was extracted with cold perchloric acid (10%) from 10 mg of spinal cord, neutralized with KOH and centrifugated [Khan H. A. et al., J. Biosci. 2003, 28, 379-382]. Then, ATP concentrations were quantified in triplicate per animal using the ATPlite 1 step (PerkinElmer) according to the manufacturer's protocol. Data were normalized to mg of proteins. All assays were performed in triplicate.
NAD^+ and NADH were quantified by the NAD cycling assay and pyruvate kinase activity was determined by a spectrophotometrical method as previously described [Galino J. et al., Antiox. Redox Signal 2011, 15, 2095-2107].

Data set [6] concerns SIRT1. The data set can be described thus: SIRT1 fluorometric activity assay on spinal cord protein. It is filed as in vivo, mouse. The conditions noted are these: Abcd1− mice fed 2 months with pioglitazone, 12 months of age, FIG. 13. As to the method:
as §1
We used a SIRT1 fluorometric assay kit (BIOMOL) based on the generation of a fluorophore via the NADtdependent deacetylation by SIRT1 of its substrate, which is a peptide comprising amino acids 379-382 of human p53 (Arg-His-Lys-Lys(Acetyl) (SEQ ID NO: 7) [Howitz K. T. et al., Nature 2003, 425, 191-196; and Vaziri H. et al., Cell 2001, 107, 149-159]. The assay's fluorescence signal is generated in proportion to the amount of Lys-382 deacetylation [Chabi B. et al., J. Appl. Physiol. 2009, 107, 1730-1735]. Briefly, 25 μg of total protein were incubated with Fluor de Lys-Sirt1 substrate (100 μM) and NAD^+ (100 μM) at 37° C. for 30 min in a final volume of 50 μl. The reaction was stopped by the addition of 50 μl of developer reagent and nicotinamide (2 mM) and the fluorescence was subsequently monitored for 30 min at 360 nm (excitation) and 460 nm (emission).

Data set [7] has as its system Abcd1-null mice. The data set can be described thus: Relative gene expression by quantitative RT-PCR in spinal cord. The conditions noted are these: Abcd1− mice fed 2 months with pioglitazone, 12 months of age, FIG. 12. It is filed as in vivo, mouse. How it is done: as §1
First tissues were lysed using Trizol reagent (Invitrogen), then total RNA was extracted using RNeasy Kit (Qiagen). Lysis and extraction were performed according to the manufacturer's instructions. Total DNA from tissues was extracted using Gentra Puregene Tissue Kit (Qiagen) according to the manufacturer's instructions.
[…] of RNA was transcribed into cDNA using Superscript II reverse transcription reagents in a final volume of 25 μl (Invitrogen). A TaqMan real time PCR was performed within the ABI PRISM 7300HT sequence detection system using the TaqMan Universal PCR master mix and the standardized primers for mouse SIRT1 (Mm00490758) PGC-1α (Mm00447183), PGC-1β (Mm01258518), ERRα (Mm00433143), NRF-1 (Mm00447996), TFAM (Mm00447485), TFB1M (Mm00524825) and TFB2M (Mm01620397). To measure gene expression and mtDNA abundance 0.1 to 0.2 μl of cDNA and 100 ng of DNA were respectively used.
To quantify mouse and human mtDNA content, two probes (mouse cytochrome b (cytb) (Gene ID: 17711) and human cytochrome c […] subunit II (COXII) (Gene ID: 4513) were respectively designed (Custom TaqMan Gene Expression Assays; Applied Biosystems). The sequences for mouse cytb primers were: […] (SEQ ID NO: 1) (forward) and […] (SEQ ID NO: 2) (reverse) and the FAM-labeled probe was TTGCAACTATAGCAACAG (SEQ ID NO: 3). The sequences for human COXII primers were: […] (SEQ ID NO: 4) (forward) and […] (SEQ ID NO: 5) (reverse) and the FAM-labeled probe was AAATCTGTGGAGCAAACC (SEQ ID NO: 6). Quantification of mtDNA was referred to nuclear DNA as determined by the amplification of the intronless nuclear gene C/EBPα. (Mouse and human CEBPα are respectively: Mm00514283, Hs00269972.). Each sample was run in duplicate, and the mean value of the duplicate was used to calculate the mRNA expression of the genes of interest which were normalized to that of the reference control (18S, Hs99999901) using the comparative (2^−ΔCt) method, according to the manufacturer's instructions.

The subject of data set [8] is Abcd1−/Abcd2−/− (DKO) mice. The experiment in a line: Immunohistochemistry / histology of dorsal spinal cord (axonal degeneration). The following applies: pioglitazone 4 months (13 to 17 months of age).
Source text: We set up a preclinical trial to assess the effect of pioglitazone on the progression of clinical signs using DKO null mice as the model Animals were randomly assigned to one of the following groups. […] We treated animals for 4 months starting at 13 months of age in order to start treatment at the onset of clinical signs [Lopez-Erauskin J. et al., Ann.
Spinal cords were harvested from 18 month-old wild type (WT), Abcd1^−/Abcd2^−/− (DKO) and Abcd1^−/Abcd2^−/− fed with pioglitazone for 4 months (DKO+PIO), after perfusion with PFA 4%, basically as described [Lopez-Erauskin J. et al., Ann. […] Spinal cords were embedded in paraffin and serial sections, 5 μm thick, were cut in a transversal or longitudinal plane.
The number of abnormal specific profiles was counted at every 10 sections for each particular stain. At least three sections corresponding to the dorsal columns of the spinal cord were analysed per animal and per stain. Results were expressed as mean values±standard deviations.
Immunohistochemistry experiments were performed.
The nature of data set [9]: Weight and food intake during dietary treatment. The class given is in vivo, mouse. The following applies: both protocols of treatment (Abcd1-null 2 months; DKO 4 months), 9 mg/kg/day in chow. As to the method:
Pioglitazone (Actos®) was mixed into AIN-76A chow from Dyets (Bethlehem, Pa.) at 0.012% w/w, corresponding to a dose of 9 mg/kg/day per mice [Yan Q. et al., J. Neurosci. 2003, 23, 7504-7509]. […] Neurol. […] Mol. Genet. […] Mol. Genet. […] Mol. Genet. 2005, 14, 3565-3577].

For data set [10] the following is noted: Yamada T. et al. 2000; cited from earlier work.
A further data set deals with X-ALD patients. The conditions noted are these: recent study in X-ALD patients; cited from earlier work.
Where [11] appears, read: spinal cord, 12 months of age, FIG. 11.

In the case of `CCc1ccc(CCOc2ccc(CC3SC(=O)NC3=O)cc2)nc1` (racemic) [pioglitazone, 5-(4-[2-(5-ethylpyridin-2-yl)ethoxy]benzyl)thiazolidine-2,4-dione], in the data set with Abcd1-null mice [1] (FIG. 15b), the GPX1 protein level result is listed as “normalized”. Further, in the data set with Abcd1-null mice [1] (setting [11]), the NDUFB8 protein level result is given as “increased” and the VDAC protein level entry was “increased”. In addition, in the data set with SIRT1 [2], the “levels of carbonylation on SIRT1 protein (SIRT1 oxidation)” value is on record as “lowered; also recorded: normalized”. In the data set on Abcd1-null mice [3], the AASA content entry is on record as “normalized”, the “CEL (glycoxidative) content” value is listed as “normalized”, the GSA content result was “normalized” and the “MDAL (lipoxidative) content” value is “normalized”. In addition, in data set [4], the number of slips entry was “full normalisation” and the “time used to cross the bar” value is listed as “full normalisation”. The ATP levels result with Abcd1-null mice [5] (FIG. 14a) is on record as “normalised”. In addition, the NADH levels entry with Abcd1-null mice [5] (FIG. 14b) is listed as “normalised”. The “activity of pyruvate kinase” value in the data set on Abcd1-null mice [5] (FIG. 14c) is listed as “normalised”. The SIRT1 activity entry with SIRT1 [6] was “rescued; also recorded: normalized”. In the data set on Abcd1-null mice [7], the “NRF1 mRNA” value was “increased”, the SIRT1 expression entry is recorded as “no effect”, the “TFAM mRNA” value is given as “increased” and the “expression of PGC-1α mRNA” value was “increased”. Besides, in data set [8] (FIG. 16), the “number of reactive astrocytes” value is on record as “strikingly reduced to control levels” and the “number of reactive microglia” value is reported as “strikingly reduced to control levels”. Also, the “accumulation of markers of axonal damage (APP, synaptophysin in axonal swellings)” value in data set [8] (FIG. 16, 17) was “strikingly reduced to control levels”. Moreover, in data set [9], the food intake result is recorded as “no effect” and the weight entry is “no effect”.
Take `CC[C@H](C)C(=O)O[C@H]1C[C@@H](C)C=C2C=C[C@H](C)[C@H](CC[C@@H]3C[C@@H](O)CC(=O)O3)[C@H]21` [Lovastatin]: the effect in vitro result in data set [10] is given as “some effect”.
For `CCCC(CCC)C(=O)O` [VPA, valproic acid], the adverse effects entry in the data set with X-ALD patients was “adverse effects such as trembling”.
